Data taken from patent US11236124B2, “Method and composition for hydrolyzing eggshell membrane” (EGGNOVO S.L., priority 2017, dated 2022).

What was measured:
Type in all cases: biochemical
[1] = tested on: eggshell membrane; assay: Eggshell membrane solubilization with different enzymes and reducing agents (Example 1); conditions: 10 mg eggshell membrane/ml
Experimental: A solution for solubilizing eggshell membrane was prepared at a ratio of 10 mg of eggshell membrane/ml of solution. Said solution comprised a denaturing agent, and more specifically a denaturing agent having detergent properties and an amphiphilic nature such as SDS, at a concentration of 0.5-5%. The solution also comprised a reducing agent, for which solutions of the following reducing agents were prepared at a concentration of 100 mM-1 M: sodium sulfite (Na2SO3), sodium hydrosulfite (Na2S2O4), sodium hydroxymethanesulfinate (HOCH2SO2Na), sodium metabisulfite (Na2S2O5), and dithiothreitol (DTT); these solutions were tested successively. Finally, a suitable buffer was added for maintaining the pH depending on the enzyme that was going to be used, having a concentration of 25-50 mM. Once the pH was adjusted with a pH-meter to the optimum pH for each enzyme, the enzyme previously prepared according to the manufacturer's specification at a concentration of 1% was added to the solution, such that the final concentration of the enzyme with respect to the total solution was 0.05-0.5%. The same was performed with each of the enzymes used in the present example.
Once all the components were mixed and homogenized, said mixture was incubated at the maximum temperature of activity of each enzyme. The level of hydrolysis was assessed after 1, 12, and 24 hours of incubation and the results were compared against a control that is performed and only differs from the test solutions by the absence of enzyme.

[2] = tested on: eggshell membrane; assay: Testing of denaturing agents for eggshell membrane dissolution; conditions: denaturing agent used for eggshell membrane hydrolysis
[3] = tested on: eggshell membrane; assay: Eggshell membrane solubilization with papain at different Na2S2O5 concentrations, with or without SDS (Example 2); conditions: 38° C., 12 h, 10 mg membrane/ml
Experimental: Specifically, a solution for solubilizing 10 mg of eggshell membrane/ml of solution was prepared. Said solution only contained 100 mM sodium metabisulfite (Na2S2O5) (1). Three other similar solutions were prepared with an increasing order of concentration of Na2S2O5, i.e., 5 mM (2), 50 mM (3), and 100 mM (4), but in this case they contained 0.5-5% SDS in 50 mM HEPES buffer adjusted to pH 6.2 with a pH-meter. It was verified that the optimum range of sodium metabisulfite (Na2S2O5) for the present invention is between 50 and 150 mM. Papain previously activated in a 0.15 M sodium chloride solution was added such that the final concentration of the enzyme in the mixture was 0.05-0.5%. Once all the components were mixed and homogenized, said mixture was incubated at 38° C. for 12 h. The level of hydrolysis was evaluated after 12 hours of incubation and the results were compared against a control that is performed and only differs from the test solutions by the absence of enzyme.

[4] = tested on: eggshell membrane; assay: Hydrolyzation of different amounts of eggshell membrane with 0.1% papain (Example 3); conditions: papain 0.1%, 12 h, 100 mM Na2S2O5, SDS, pH 6.2, 38° C.
Experimental: Specifically, different solutions with different amounts of eggshell membrane were prepared such that final concentrations with respect to the total solution volume of 20, 30, 40, 50, 70, 100, and 150 mg of eggshell membrane/ml of solution were obtained. The solution contained 100 mM sodium metabisulfite (Na2S2O5), 0.5-5% SDS in 50 mM HEPES buffer adjusted to pH 6.2 with a pH-meter. 1% papain previously activated in a 0.15 M sodium chloride solution was then added such that the concentration of the enzyme with respect to the final volume of the mixture was 0.05-0.5%. Once all the components were mixed and homogenized, said mixture was incubated at 38° C. for 12 h and the results were compared against a control that is performed and only differs from the test solutions by the absence of enzyme. A clear, amber-colored solution was obtained, the color of which intensifies as the membrane concentration increases, in addition to the presence of a precipitate increasing, which indicates a lower level of hydrolysis.

[5] = SDS + Na2S2O4, 24 h, pH optimum of each enzyme
[6] = SDS + Na2SO3, 24 h, pH optimum of each enzyme
[7] = SDS + DTT, 24 h, pH optimum of each enzyme
[8] = SDS + HOCH2SO2Na, 24 h, pH optimum of each enzyme
[9] = SDS + Na2S2O5, 24 h, pH optimum of each enzyme

Molecule | % solubilized ([1]; SDS + DTT, 1 h, pH 6.2) [%] | % solubilized ([1]; SDS + HOCH2SO2Na, 12 h, pH 6.2) [%] | % solubilized [1, 5] [%] | % solubilized ([1]; SDS + Na2S2O5, 1 h, pH 6.2) [%] | % solubilized [1, 6] [%] | dissolution results with the denaturing agent [2] | % solubilized [1, 7] [%] | % solubilized [1, 8] [%] | % solubilized [1, 9] [%] | other results
Bromelain | 100 | 100 | 0 | 100 | 0 | – | – | – | – | –
CCCCCCCCCCCCOS(=O)(=O)[O-].[Na+] [SDS, sodium lauryl sulfate] | – | – | – | – | – | excellent results | – | – | – | –
Pepsin | – | – | 0 | – | 0 | – | 0 | 0 | 0 | –
NC(N)=O [urea] | – | – | – | – | – | without obtaining satisfactory dissolution results | – | – | – | –
Ficin | – | – | 0 | – | 0 | – | 50 | 0 | 50 | –
Papain: protease of plant origin with endopeptidase activity from the group of cysteine proteases (protein, UniProt P00784 134-345, looked up) Papain: IPEYVDWRQKGAVTPVKNQGSCGSCWAFSAVVTIEGIIKIRTGNLNEYSEQELLDCDRRSYGCNGGYPWSALQLVAQYGIHYRNTYPYEGVQRYCRSREKGPYAAKTDGVRQVQPYNEGALLYSIANQPVSVVLEAAGKDFQLYRGGIFVGPCGNKVDHAVAAVGYGPNYILIKNSWGTGWGENGYIRIKRGTGNSYGVCGLYTSSFYPVKN | 100 | 100 | 0 | 100 | 0 | – | – | – | – | % solubilized ([3]; (1) Na2S2O5 100 mM, no SDS): 0%; % solubilized ([3]; (2) SDS + Na2S2O5 5 mM, pH 6.2): 0%; % solubilized ([3]; (3) SDS + Na2S2O5 50 mM, pH 6.2): 70%; % solubilized ([3]; (4) SDS + Na2S2O5 100 mM, pH 6.2): 100%; % of hydrolyzation ([4]; membrane 20 mg/ml): 100%; % of hydrolyzation ([4]; membrane 30 mg/ml): 100%; % of hydrolyzation ([4]; membrane 50 mg/ml): 100%; % of hydrolyzation ([4]; membrane 70 mg/ml): 100%; % of hydrolyzation ([4]; membrane 100 mg/ml): 90%; % of hydrolyzation ([4]; membrane 150 mg/ml): 80%
